Experimental findings from patent US20250009716A1, “NOVEL INHIBITORS OF CLAUDIN-1 FOR THERAPEUTIC INTERVENTIONS” (BOARD OF REGENTS OF THE UNIVERSITY OF NEBRASKA, priority 2021, published 2025) are described below.

A short description of data set [1]: Cell survival assay of three inhibitors (FIG. 2B). Type of data set: cell-based. On the procedure: (A) In-silico 3D-structure of claudin-1, cavities that can be targeted by small molecules were defined using Molegro Virtual Docker. (B) Cell survival assay showing effects of three different inhibitors (I1, I2 and 16). […] (C) Effect of 16 treatment (72 hours) upon resistance to anoikis in claudin-1 overexpressing SW480 cells and claudin-1 deficient HCT116 cells. (D) Effect of 16 treatment on cell invasion in SW480claudin-1 cells. (E) Effect of inhibitor 16 on xenograft tumors. Tumors were induced for two weeks after which 16 was injected i.p (10 mg/kg). Effect on tumor growth was monitored.

A short description of data set [2]: Pharmacokinetics after single i.v. dose. Format: in vivo, mice. The method, then: To determine the in vivo characteristics of this drug, a pharmacokinetic and tissue distribution study on 16 was performed. Following a single i.v. dose of 16 (1 mg/kg) in mice (C57B/16; n=5), serial blood samples were obtained at 0.08, 0.25, 0.75, 2, 4, 6, 8 and 24 hours after the injection and plasma samples were analyzed for 16 concentrations. Pharmacokinetic parameter values were obtained from the plasma concentration-time data using standard non-compartmental methods (WinNonlin, PharSight Corp). […] To assess the tissue distribution of 16, mice were sacrificed at 2, 8 and 24 hours after the i.v. administration of the drug. Measurable concentrations of 16 were detected in all studied tissues at 2, 8, and 24 h. […] Next, metabolic stability studies of 16 was evaluated using mouse liver S9 fractions for the in vitro assessment of phase I and II metabolism. […] Testosterone, 7-HC and diclofenac were used as positive controls, ensuring proper incubation conditions were maintained. […] The results of these in vitro drug metabolism studies guided the rational development of 16 structural analogs.
Pharmacokinetic parameter values were estimated from the plasma concentration-time data using standard noncompartmental methods and software (WinNonlin, PharSight Corp). […] Terminal elimination half-life (t1/2) was calculated by dividing 0.693 by terminal elimination rate constant Iz. Drug clearance (Cl) was calculated using standard equations. Area under the plasma concentration-time curve from 0 to 24 hours (AUCO-24) was calculated with the linear-log trapezoidal rule. The area under the plasma concentration-time curve from 0 to infinity (AUCO-infinity) was calculated as AUCO-24+C24/Iz. The absolute bioavailability (F) was calculated as the ratio between the AUCO-infinity from oral and intravenous routes using standard equations (FIG. 39).

In another data set the test system is SW480claudin-1 cells. Kind of data set: Cell survival (MTT assay) versus dasatinib. Format: cell-based. The method, then: Effects on (A) phosphorylation of Src and EphA2 and (B) cell survival (MTT assay) were determined. Significant changes are boxed.
Data set [3] concerns claudin-1 overexpressed patient-derived xenograft. The experiment in a line: Patient-derived xenograft (PDX) tumors. Type of data set: in vivo, nude mice. The conditions noted are these: 5 mg/kg and 10 mg/kg. On the procedure: Representative images of tumors from the vehicle and PDS-0330 (5 mg/kg and 10 mg/kg)-treated claudin-1 overexpressed PDX implanted nude mice.
Tumor volume was measured using calipers over time (n=5 mice per group). The formation of flank xenograft tumors in claudin-1 overexpressed PDX implanted nude mice was examined between vehicle and PDS-0330 (5 mg/kg and 10 mg/kg) treatment (n=5 mice per group). For graphs, data represent mean±SD; *, P<0.05; **, P<0.01; ***, P<0.001 & ****, P<0.0001.
Establishment of fresh patient derived xenograft (PDX) with tumors from the operating room. Human patient colon cancers were excised under standard sterile conditions. Initially, tumor fragments were implanted subcutaneously within 30 min of patient surgery over the right and left upper and lower flanks in nude mice. Subcutaneous tumors were allowed to grow for 2-4 weeks until large enough to supply adequate tumor for orthotopic implantation for PDOX models.

Entries after “also recorded” stand apart in the source; their conditions may differ.

As to `COc1cc2ccccc2cc1C(=O)NC(=S)Nc1ccc(-c2nc3ccccc3[nH]2)cc1` [Compound 16], the “effect on cell survival, compared among I1, I2 and 16” value in data set [1] was “most effective”. Besides, in data set [2] (1 mg/kg i.v.), the clearance worked out at 13 mL/min/kg and the “time up to which detectable in plasma” value was “up to 24 hrs”. Also, the peak concentration in data set [2] (1 mg/kg i.v., plasma) was 798 ng/mL. Besides, the “mouse behavior or weight” value in data set [2] (24 hours after single i.v. injection) is “no change in mouse behavior or weight”. Besides, in data set [2] (C57B/16, mouse, iv, 1 mg/kg i.v., plasma), the area under the curve (AUC) turned out to be 1210 ng·h/mL. The half-life in data set [2] (C57B/16, mouse, plasma, iv, 1 mg/kg i.v., read-out: elimination t1/2 (converted)) was 7 h. For the same molecule, the Vd in data set [2] (C57B/16, mouse, plasma, iv, 1 mg/kg i.v., read-out: volume of distribution) amounted to 8.4 L/kg.
As for `O=C(NC(=S)Nc1ccc(-c2nc3ccccc3o2)cc1)c1ccc2ccccc2c1` [PDS-0330], the “percent cell survival compared with dasatinib” value in the data set with SW480claudin-1 cells is on record as “significantly decreased percent cell survival more than dasatinib; also recorded: more effective in inhibiting cell survival”. Further, the tumor formation entry in data set [3] is “inhibits tumor formation”.
